System: HIV with mutations in the HIV protease sequence
Experiment: Phenotypic fold resistance to protease inhibitors, protease mutations 84A/84L/84C/54M/54L/54V in a background (Examples 8-13)
Format: cell-based, HIV-1
Description: As is the case with the genotyping assays, the recombinant virus assay starts with the amplification of viral target sequences by means of PCR. The amplicons are incorporated into a proviral laboratory clone with sequences homologous to those present in the amplicon deleted. This generates a stock of chimeric viruses. The viruses are tested for their ability to grow in the presence of different concentrations of drugs. Results are obtained by calculating IC50 values for each inhibitor and by reporting the results as IC50 values, expressed in μM concentrations, or by computing the ratio of the IC50 values found for the chimeric virus to the IC50 values found for a wild type susceptible laboratory virus tested in parallel. In the latter case, resistance is expressed as “fold-resistance” compared to a wild-type susceptible HIV-1 strain. In order to meet the need for high-volume testing and a short turn-around time for an individual test, the latest generation of phenotyping assays has undergone further modifications. The use of reporter gene systems for susceptibility testing allows the implementation of laboratory automation and standardization. See Pauwels, et al., J. Virol. Methods 20, 309-321 (1998); Paulous, S., et al., International Workshop on HIV Drug Resistance, Treatment Strategies and Eradication, St. Petersburg, Fla., USA. Abstr. 46 (1997); and Deeks, S. G., et al., 2nd International Workshop on HIV Drug Resistance and Treatment Strategies, Lake Maggiore, Italy. Abstr. 53 (1998).
The ANTIVIROGRAM® assay (Virco) (WO 97/27480) is based on homologous recombination of patient derived HIV-1 gag/PR/RT sequences into a proviral HIV-1 clone correspondingly deleted for the gag/PR/RT sequences. See Pauwels, et al., J. Virol. Methods 20, 309-321 (1998). A similar assay (Phenosense ViroLogic) is based on enzymatic ligation of patient-derived PR/RT sequences into a correspondingly deleted proviral vector carrying an indicator gene, luciferase, inserted in the deleted HIV-1 envelope gene. See Deeks, S. G., et al., 2nd International Workshop on HIV Drug Resistance and Treatment Strategies, Lake Maggiore, Italy. Abstr. 53 (1998). Hertogs et al. Antimicrob. Agents Chemother. 44(3) 568-573 (2000) the disclosures of which are herein incorporated by reference.
The methods of monitoring HIV-1 drug resistance, may also be used in combination with phenotypic drug resistance testing of viral isolates. For example, in one embodiment, a phenotypic test is utilized that is based upon the construction of chimeric HIV-1 strains composed of the protease (PR) and reverse transcriptase (RT) gene sequences which are isolated and amplified from the patient viral RNA. These strains may subsequently be recombined inside CD4+ T cells with a standard laboratory isogenic (HXB2) HIV-1 DNA construct from which the PR/RT gene sequences were deleted. The recombinant strains may then be grown in the presence of the above-mentioned antiviral drugs and the susceptibility of the viral isolates may be expressed as fold-change value of the IC50 of the drug on the patient isolates over the IC50 of the drug on a wild-type laboratory reference strain.

Compound: CC(C)c1nc(CN(C)C(=O)N[C@H](C(=O)N[C@@H](Cc2ccccc2)C[C@H](O)[C@H](Cc2ccccc2)NC(=O)OCc2cncs2)C(C)C)cs1 [Ritonavir, ritonavir]
- mean fold increase in resistance (Table 9 #1, protease genotype WT): 0.6 fold
- mean fold increase in resistance (Table 9 #2, protease genotype 10I): 1.15 fold
- mean fold increase in resistance (Table 9 #3, protease genotype 46I): 0.8 fold
- mean fold increase in resistance (Table 9 #4, protease genotype 46I + 84V): 4.6 fold
- mean fold increase in resistance (Table 9 #5, protease genotype 46I + 84A): 51.8 fold
- mean fold increase in resistance (Table 9 #6, protease genotype 10I + 46I): 1.5 fold
- mean fold increase in resistance (Table 9 #7, protease genotype 10I + 46I + 84V): 11.9 fold
- mean fold increase in resistance (Table 9 #8, protease genotype 10I + 46I + 84A): 77.3 fold
- mean fold increase in resistance (Table 9 #9, protease genotype 10L/I + 46I + 84A): 114 fold
- mean fold increase in resistance (Table 9 #10, protease genotype 10I + 46I + 84A): 44.5 fold
- mean fold increase in resistance (Table 9 #11, protease genotype 46I + 71V): 1.4 fold
- mean fold increase in resistance (Table 9 #12, protease genotype 46I + 71V + 84V/I): 1.8 fold
- mean fold increase in resistance (Table 9 #13, protease genotype 46I + 71V + 84A): 102.2 fold
- mean fold increase in resistance (Table 9 #14, protease genotype 10F + 46I + 71V): 4.1 fold
- mean fold increase in resistance (Table 9 #15, protease genotype 10I + 46I + 71V + 84V): 45.6 fold
- mean fold increase in resistance (Table 9 #16, protease genotype 10I + 46I + 71V + 84A): 114.9 fold
- mean fold increase in resistance (Table 9 #17, protease genotype 10V + 46I + 71T + 84A): 91.9 fold
- mean fold increase in resistance (Table 9 #18, protease genotype 10I + 46I + 71V + 77I): 1.65 fold
- mean fold increase in resistance (Table 9 #19, protease genotype 10I + 46I + 71V + 77I + 84V): 3.1 fold
- mean fold increase in resistance (Table 9 #20, protease genotype 10I + 46I + 71V + 77I + 84A): 121.3 fold
- mean fold increase in resistance (Table 9 #21, protease genotype 10I + 33L/I + 46I + 71V + 77V/I + 84A): 38.6 fold
- mean fold increase in resistance (Table 10 #1, protease genotype 10I + 36I + 71V): 1.2 fold
- mean fold increase in resistance (Table 10 #2, protease genotype 10I + 36I + 71I + 84V): 1.5 fold
- mean fold increase in resistance (Table 10 #3, protease genotype 10I + 36I + 71I + 84L): 0.8 fold
- mean fold increase in resistance (Table 11 #1, protease genotype WT): 0.6 fold
- mean fold increase in resistance (Table 11 #2, protease genotype 84V): 2.4 fold
- mean fold increase in resistance (Table 11 #3, protease genotype 84C): 2.9 fold
- mean fold increase in resistance (Table 11 #4, protease genotype 10I): 1.2 fold
- mean fold increase in resistance (Table 11 #5, protease genotype 10I + 84V): 6.5 fold
- mean fold increase in resistance (Table 11 #6, protease genotype 10I + 84C): 5.4 fold
- mean fold increase in resistance (Table 11 #7, protease genotype 77I): 0.4 fold
- mean fold increase in resistance (Table 11 #8, protease genotype 77I + 84V): 5.0 fold
- mean fold increase in resistance (Table 11 #9, protease genotype 77I + 84C): 2.8 fold
- mean fold increase in resistance (Table 11 #10, protease genotype 77I + 84C): 3.2 fold
- mean fold increase in resistance (Table 11 #11, protease genotype 10I + 24I + 36I + 46I + 71V + 84C): 47 fold
- Fold change in IC50 (Table 12, V19263, genotype 77I): 0.4 fold
- Fold change in IC50 (Table 12, V20160, genotype WT): 0.6 fold
- Fold change in IC50 (Table 12, V021667, genotype 10I): 1.2 fold
- Fold change in IC50 (Table 12, V030496, genotype 10I + 77I): 0.5 fold
- Fold change in IC50 (Table 12, V048869, genotype 10I + 54M + 77I + 90M): 20.0 fold
- Fold change in IC50 (Table 12, V048872, genotype 33F + 54M + 77I + 90M): 8.7 fold
- Fold change in IC50 (Table 12, V048873, genotype 33F + 54M + 77I + 90M): 11.4 fold
- Fold change in IC50 (Table 12, V048877, genotype 10I + 33F + 77I + 90M): 20.5 fold
- Fold change in IC50 (Table 12, V048878, genotype 10I + 33F + 54M + 71V + 77I + 90M): 17.2 fold
- Fold change in IC50 (Table 12, V048879, genotype 10I + 33F + 54M + 71V + 77I + 90M): 74.0 fold
- Fold change in IC50 (Table 12, V048880, genotype 10I + 33F + 77I + 90M): 3.6 fold
- Fold change in IC50 (Table 12, V052940, genotype 71V): 0.4 fold
- Fold change in IC50 (Table 12, V052942, genotype 10I + 71V): 0.6 fold
- Fold change in IC50 (Table 12, V052943, genotype 10I + 90M): 1.8 fold
- Fold change in IC50 (Table 12, V052944, genotype 10I + 90M): 1.5 fold
- Fold change in IC50 (Table 12, V052945, genotype 77I + 90M): 1.9 fold
- Fold change in IC50 (Table 12, V052946, genotype 71V + 90M): 2.0 fold
- Fold change in IC50 (Table 12, V052947, genotype 10I + 77I + 90M): 6.9 fold
- Fold change in IC50 (Table 12, V052948, genotype 10I + 71V + 90M): 10.5 fold
- Fold change in IC50 (Table 12, V052949, genotype 10I + 71V + 77I + 90M): 2.3 fold
- Fold change in IC50 (Table 12, V052950, genotype 33F): 1.5 fold
- Fold change in IC50 (Table 12, V052951, genotype 33F + 77I): 0.3 fold
- Fold change in IC50 (Table 12, V052953, genotype 10I + 33F + 77I): 1.1 fold
- Fold change in IC50 (Table 12, V052954, genotype 33F + 77I + 90M): 2.2 fold
- Fold change in IC50 (Table 12, V052955, genotype 33F + 71V + 90M): 77.9 fold
- Fold change in IC50 (Table 12, V052977, genotype 10I + 33F + 54M): 35.5 fold
- Fold change in IC50 (Table 12, V052978, genotype 10I + 33F + 54M + 71V + 90M): 17.9 fold
- Fold change in IC50 (Table 12, V052979, genotype 10I + 54M): 20.0 fold
- Fold change in IC50 (Table 12, V052980, genotype 10I + 54M + 90M): 4.1 fold
- Fold change in IC50 (Table 12, V052981, genotype 10I + 54M + 71V + 90M): 9.4 fold
- Fold change in IC50 (Table 12, V052982, genotype 10I + 54M + 71V + 77I + 90M): 13.4 fold
- Fold change in IC50 (Table 12, V053832, genotype 10I + 33F): 2.9 fold
